Assays:
Substance-P receptor = Substance-P receptor (Rattus norvegicus, UniProt P14600); assay: Inhibition of Tachykinin receptor 1 of rat forebrain tissue
Cavia porcellus = species: Cavia porcellus; assay: pA2 was evaluated from schild analyses of the guinea pig ileum contractility data; format: functional; conditions: read-out: pA2 (converted)
Rattus norvegicus [1] = assay: cIn vivo SP antagonist activity in rats using SP-induced salivation and paw edema assays; format: functional
Rattus norvegicus [2] = assay: In vivo SP antagonist activity in rats using SP-induced salivation and paw edema assays; format: functional

Chain of Substance-P receptor (P14600 whole entry): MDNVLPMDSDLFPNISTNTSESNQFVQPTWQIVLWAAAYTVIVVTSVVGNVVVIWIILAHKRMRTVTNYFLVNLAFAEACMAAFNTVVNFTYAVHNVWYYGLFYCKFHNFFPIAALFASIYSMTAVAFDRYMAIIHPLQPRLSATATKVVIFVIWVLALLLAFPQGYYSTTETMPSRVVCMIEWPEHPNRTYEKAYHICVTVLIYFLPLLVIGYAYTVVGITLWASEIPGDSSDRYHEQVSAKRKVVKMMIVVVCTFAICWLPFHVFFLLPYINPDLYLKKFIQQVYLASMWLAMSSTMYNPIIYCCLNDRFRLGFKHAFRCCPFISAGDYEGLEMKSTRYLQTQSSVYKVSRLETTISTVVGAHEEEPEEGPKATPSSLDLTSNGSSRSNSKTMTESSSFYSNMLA

| SMILES | IC50 (Substance-P receptor) [nM] | other results |
| --- | --- | --- |
| CCn1c2[n+](c3cc4ccccc4cc31)CCC2=C/C=C1\N(C)c2ccccc2C1(C)C | 790 | – |
| CCn1c(/C=C/C=C2\N(C)c3ccccc3C2(C)C)[n+](CC)c2nc3ccccc3nc21.[Cl-] | – | Kb (Cavia porcellus): 58.9 nM; ED50 (Rattus norvegicus [1]): 1.73 mg/kg |
| CCN1/C(=C\C=C\c2n(CC)c3cc4ccccc4cc3[n+]2CC)C(C)(C)c2ccccc21 | 360 | – |
| CCN1/C(=C\C=C2CC[n+]3c2n(CC)c2cc4ccccc4cc23)Oc2ccccc21 | 4200 | – |
| CCN1/C(=C\C=C2/CCC[n+]3c2n(CC)c2cc4ccccc4cc23)Sc2ccccc21 | 1300 | – |
| CCn1c(/C=C/C=C2\N(C)c3ccccc3C2(C)C)[n+](CC)c2cc3ccccc3cc21.[Cl-] | 390 | Kb (Cavia porcellus): 35.5 nM; ED50 (Rattus norvegicus [2]): 0.48 mg/kg |
| CCn1c(/C=C/C=C2\N(C)c3ccccc3C2(C)C)[n+](CCOC(C)=O)c2cc3ccccc3cc21 | 410 | – |
| CCn1c(/C=C/C=C2\N(C)c3ccccc3C2(C)C)[n+](CCO)c2cc3ccccc3cc21 | 450 | – |
| CCN1/C(=C\C=C\c2n(CC)c3cc4ccccc4cc3[n+]2CC)Oc2ccccc21 | 310 | – |
| CCN1/C(=C\C=C\c2n(CC)c3cc4ccccc4cc3[n+]2CC)Sc2ccccc21 | 320 | – |
| CCn1c2[n+](c3cc4ccccc4cc31)C(C)CC2=C/C=C1\N(C)c2ccc3ccccc3c2C1(C)C (stereo not given) | 310 | – |
| CCN1/C(=C\C=C2CC(C)[n+]3c2n(CC)c2cc4ccccc4cc23)Sc2ccccc21 (stereo not given) | 180 | – |
